Results published in PubChem BioAssay (NCI).
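1) Cells in 96-well plates. 2) Compound, 48 h, 5 concentrations. 3) Linear interpolation between surrounding doses. 4) Unreached endpoint = highest concentration. Abbreviation: GI50, concentration required for 50% inhibition of growth. TGI: total growth inhibition.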

What was measured:
Test in all cases: DTP human tumour cell line panel, 48 h
786-0 renal = system: 786-0 renal
BT-549 breast = system: BT-549 breast
HCT-116 colon = system: HCT-116 colon
KM20L2 colon = system: KM20L2 colon
M14 melanoma = system: M14 melanoma
MALME-3M melanoma = system: MALME-3M melanoma
SF-268 CNS = system: SF-268 CNS
SNB-78 CNS = system: SNB-78 CNS
T-47D breast = system: T-47D breast
UACC-257 melanoma = system: UACC-257 melanoma

Row | SMILES | TGI (786-0 renal) [µM] | GI50 (BT-549 breast) [µM] | TGI (BT-549 breast) [µM] | TGI (HCT-116 colon) [µM] | TGI (KM20L2 colon) [µM] | TGI (M14 melanoma) [µM] | TGI (MALME-3M melanoma) [µM] | TGI (SF-268 CNS) [µM] | TGI (SNB-78 CNS) [µM] | GI50 (T-47D breast) [µM] | TGI (T-47D breast) [µM] | TGI (UACC-257 melanoma) [µM] | GI50 (786-0 renal) [µM] | GI50 (M14 melanoma) [µM] | GI50 (SF-268 CNS) [µM] | GI50 (SNB-78 CNS) [µM] | GI50 (UACC-257 melanoma) [µM] | GI50 (HCT-116 colon) [µM] | GI50 (KM20L2 colon) [µM] | GI50 (MALME-3M melanoma) [µM]
1 | NC1=C(Br)C(=O)c2ncccc2C1=O | 2.99 | 1.16 | 2.57 | 0.807 | 3.54 | 2.03 | 1.4 | 1.92 | 2.48 | 1.69 | 4.1 | 1.89 |  |  |  |  |  |  |  | 
2 | C=C(C)C(=O)OC1CC2=CC(CC3(C)OC3C3OC(=O)C(=C)C13)OC2=O (stereo unspecified) | 20.5 |  | 25 | 17.1 | 30.5 | 15.4 | 13.3 | 47.3 | 33.3 |  | 22.6 | 13.7 |  |  |  |  |  |  |  | 
3 | CCc1ccccc1N1CCN(C(=O)c2cc(OC)c(OC)c(OC)c2)CC1 | > 100 |  | 5.87 | 16.5 | 0.307 | 2.6 | 55.9 | > 100 | > 100 |  | 67.9 | > 73.2 |  |  |  |  |  |  |  | 
4 | O=C1C=C[C@@]23C[C@@H](Nc4c(O)c5c6c(c42)=NCCC=6C=N5)SC3=C1 | 14.6 |  |  | 4.03 | 10.7 | 5.05 | 2.52 | 10.1 | 12.3 | 2.96 | 7.47 | 3.04 | 4.34 | 2.16 | 3.04 | 3.24 | 1.67 |  |  | 
5 | C/C([O-])=C1\Cc2ccccc2C1=O.C/C([O-])=C1\Cc2ccccc2C1=O.CC[O-].CC[O-].[Ti+4] | 77.6 |  |  | > 61.3 | > 100 | 42.3 | > 59.8 | 47.3 | > 100 | 15.5 | 92.4 | > 100 | 20.8 | 16.8 | 17.1 | 24 | 38.6 | 17.3 | 29.2 | 18.8
6 | Cc1ccc(S(=O)(=O)NNC(=O)c2sc(-c3nc(C)c(C(=O)NNS(=O)(=O)c4ccc(C)cc4)s3)nc2C)cc1 | > 100 |  |  | > 100 | > 100 | > 100 | > 100 | > 100 | > 100 |  |  | > 100 |  |  |  |  |  |  |  | 
7 | COc1ccc(C(Cc2cc(OC)c(OC)c(OC)c2)C(=O)O)cc1 (stereo unspecified) | > 100 |  |  | > 100 | > 100 | > 100 | > 100 | > 100 | > 100 |  |  | > 100 |  |  |  |  |  |  |  | 
